System: 885724-159-R-J1-PDC complex spheroid viability
Test: Anticancer human tumor 885724-159-R-J1-PDC patient-derived pancreatic adenocarcinoma cell line growth inhibition [GQUAD]
Details: for IC50: curve of first compound; for viability, T/C: stronger effect = lower value
How it was run: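 Tumor cells were grown as complex spheroids with HUVEC endothelial cells and mesenchymal stem cells as stroma. G-quadruplex stabilizers were combined with targeted agents over half-log dilutions from near the clinical Cmax, or from 10 microM.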

[1] = second compound 0.0316 µM, first compound 0.0316 µM
[2] = second compound 0.0316 µM, first compound 0.1 µM
[3] = second compound 0.0316 µM, first compound 0.316 µM
[4] = second compound 0.0316 µM, first compound 1 µM
[5] = second compound 0.0316 µM, first compound 3.16 µM
[6] = second compound 0.0316 µM, first compound 10 µM
[7] = second compound 0.1 µM, first compound 0.0316 µM
[8] = second compound 0.1 µM, first compound 0.1 µM
[9] = second compound 0.1 µM, first compound 0.316 µM
[10] = second compound 0.1 µM, first compound 1 µM
[11] = second compound 0.1 µM, first compound 3.16 µM
[12] = second compound 0.1 µM, first compound 10 µM
[13] = second compound 0.316 µM, first compound 0.0316 µM
[14] = second compound 0.316 µM, first compound 0.1 µM
[15] = second compound 0.316 µM, first compound 0.316 µM
[16] = second compound 0.316 µM, first compound 1 µM
[17] = second compound 0.316 µM, first compound 3.16 µM
[18] = second compound 0.316 µM, first compound 10 µM
[19] = second compound 1 µM, first compound 0.0316 µM
[20] = second compound 1 µM, first compound 0.1 µM
[21] = second compound 1 µM, first compound 0.316 µM
[22] = second compound 1 µM, first compound 1 µM
[23] = second compound 1 µM, first compound 3.16 µM
[24] = second compound 1 µM, first compound 10 µM
[25] = second compound 3.16 µM, first compound 0.0316 µM
[26] = second compound 3.16 µM, first compound 0.1 µM
[27] = second compound 3.16 µM, first compound 0.316 µM
[28] = second compound 3.16 µM, first compound 1 µM
[29] = second compound 3.16 µM, first compound 3.16 µM
[30] = second compound 3.16 µM, first compound 10 µM
[31] = second compound 10 µM, first compound 0.0316 µM
[32] = second compound 10 µM, first compound 0.1 µM
[33] = second compound 10 µM, first compound 0.316 µM
[34] = second compound 10 µM, first compound 1 µM
[35] = second compound 10 µM, first compound 3.16 µM
[36] = second compound 10 µM, first compound 10 µM
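Further: spheroids exposed to agents for seven days before readout.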
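Wherever viability, T/C is given: percent of vehicle control viability where 100% = DMSO wells.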

Compound `CC1COCCN1c1cc(-c2ccnn2C)c2ccnc(-c3ccn[nH]3)c2n1` (stereo not drawn) + Cc1cnc(CNC(=O)c2c(=O)c3ccc(N4CCCN(C)CC4)nc3n3c2sc2ccccc23)cn1 has an IC50 (second compound 0.0316 µM) of 2.66 µM, an IC50 (second compound 0.1 µM) of 5.19 µM and an IC50 (second compound 0.316 µM) of 4.11 µM. For the same compound, the IC50 (second compound 1 µM) was 1.59 µM, the IC50 (second compound 3.16 µM) was 0.609 µM and the IC50 (second compound 10 µM) was 0.728 µM. The viability, T/C [1] was 86.4%, the viability, T/C [2] was 81.4% and the viability, T/C [3] was 76.3%. The viability, T/C [4] was 54.9%, the viability, T/C [5] was 52.8% and the viability, T/C [6] was 38.5%. For the same compound, the viability, T/C [7] was 99.4%, the viability, T/C [8] was 81.1% and the viability, T/C [9] was 82.4%. For the same compound, the viability, T/C [10] was 73.5%, the viability, T/C [11] was 54% and the viability, T/C [12] was 41.3%. For the same compound, the viability, T/C [13] was 94.2%, the viability, T/C [14] was 90.3% and the viability, T/C [15] was 72.9%. For the same compound, the viability, T/C [16] was 62.2%, the viability, T/C [17] was 55.2% and the viability, T/C [18] was 41.3%. For the same compound, the viability, T/C [19] was 82.4%, the viability, T/C [20] was 74.1% and the viability, T/C [21] was 69.3%. The viability, T/C [22] was 57.2%, the viability, T/C [23] was 39.8% and the viability, T/C [24] was 33.9%. For the same compound, the viability, T/C [25] was 64.8%, the viability, T/C [26] was 65.7% and the viability, T/C [27] was 58.4%. For the same compound, the viability, T/C [28] was 42.7%, the viability, T/C [29] was 37.3% and the viability, T/C [30] was 30.9%. The viability, T/C [31] was 65.1%, the viability, T/C [32] was 61.6% and the viability, T/C [33] was 57.3%. It also gave a viability, T/C [34] of 48.2%, a viability, T/C [35] of 30.6% and a viability, T/C [36] of 25.2%.

`CC1COCCN1c1cc(C2(S(C)(=N)=O)CC2)nc(-c2ccnc3[nH]ccc23)n1` (stereo not drawn) + Cc1cnc(CNC(=O)c2c(=O)c3ccc(N4CCCN(C)CC4)nc3n3c2sc2ccccc23)cn1 showed an IC50 (second compound 0.0316 µM) greater than 10 µM, an IC50 (second compound 0.1 µM) greater than 10 µM and an IC50 (second compound 0.316 µM) greater than 10 µM. The IC50 (second compound 1 µM) was greater than 10 µM, the IC50 (second compound 3.16 µM) was greater than 10 µM and the IC50 (second compound 10 µM) was greater than 10 µM. It also gave a viability, T/C [1] of 101%, a viability, T/C [2] of 105% and a viability, T/C [3] of 110%. The viability, T/C [4] was 106%, the viability, T/C [5] was 81.5% and the viability, T/C [6] was 92.3%. The viability, T/C [7] was 118%, the viability, T/C [8] was 105% and the viability, T/C [9] was 116%. The viability, T/C [10] was 108%, the viability, T/C [11] was 103% and the viability, T/C [12] was 91.2%. The viability, T/C [13] was 114%, the viability, T/C [14] was 99% and the viability, T/C [15] was 98.3%. The viability, T/C [16] was 87.3%, the viability, T/C [17] was 86% and the viability, T/C [18] was 86.7%. It also gave a viability, T/C [19] of 93.5%, a viability, T/C [20] of 78.5% and a viability, T/C [21] of 81.6%. The viability, T/C [22] was 87.2%, the viability, T/C [23] was 90.7% and the viability, T/C [24] was 67.1%. It also gave a viability, T/C [25] of 82%, a viability, T/C [26] of 80.4% and a viability, T/C [27] of 70.5%. It also gave a viability, T/C [28] of 79.8%, a viability, T/C [29] of 83% and a viability, T/C [30] of 60.2%. For the same compound, the viability, T/C [31] was 72.8%, the viability, T/C [32] was 73.4% and the viability, T/C [33] was 72.6%. The viability, T/C [34] was 72.1%, the viability, T/C [35] was 78% and the viability, T/C [36] was 59.5%.

Work on `Cc1cccc(N(C)C(=O)C2C(O)CCN2c2nc(C)cc(C(F)(F)F)c2C#N)c1` (stereo not drawn) + Cc1cnc(CNC(=O)c2c(=O)c3ccc(N4CCCN(C)CC4)nc3n3c2sc2ccccc23)cn1 yielded an IC50 (second compound 0.0316 µM) greater than 10 µM, an IC50 (second compound 0.1 µM) greater than 10 µM and an IC50 (second compound 0.316 µM) greater than 10 µM. For the same compound, the IC50 (second compound 1 µM) was greater than 10 µM, the IC50 (second compound 3.16 µM) was greater than 10 µM and the IC50 (second compound 10 µM) was greater than 10 µM. The viability, T/C [1] was 93.7%, the viability, T/C [2] was 107% and the viability, T/C [3] was 108%. The viability, T/C [4] was 99.7%, the viability, T/C [5] was 104% and the viability, T/C [6] was 96.9%. It also gave a viability, T/C [7] of 107%, a viability, T/C [8] of 106% and a viability, T/C [9] of 112%. The viability, T/C [10] was 98.6%, the viability, T/C [11] was 91.8% and the viability, T/C [12] was 108%. For the same compound, the viability, T/C [13] was 103%, the viability, T/C [14] was 84% and the viability, T/C [15] was 89.3%. The viability, T/C [16] was 93.9%, the viability, T/C [17] was 101% and the viability, T/C [18] was 82.5%. For the same compound, the viability, T/C [19] was 83.6%, the viability, T/C [20] was 95.6% and the viability, T/C [21] was 88.3%. For the same compound, the viability, T/C [22] was 88.4%, the viability, T/C [23] was 93.9% and the viability, T/C [24] was 94.3%. It also gave a viability, T/C [25] of 84%, a viability, T/C [26] of 70.5% and a viability, T/C [27] of 79.1%. The viability, T/C [28] was 72.8%, the viability, T/C [29] was 79.4% and the viability, T/C [30] was 73.3%. It also gave a viability, T/C [31] of 92.7%, a viability, T/C [32] of 90.9% and a viability, T/C [33] of 84.8%. It also gave a viability, T/C [34] of 72.6%, a viability, T/C [35] of 103% and a viability, T/C [36] of 84.3%.

`O=C(c1cc(Cc2n[nH]c(=O)c3ccccc23)ccc1F)N1CCN(C(=O)C2CC2)CC1` + Cc1cnc(CNC(=O)c2c(=O)c3ccc(N4CCCN(C)CC4)nc3n3c2sc2ccccc23)cn1 gave an IC50 (second compound 0.0316 µM) greater than 10 µM, an IC50 (second compound 0.1 µM) greater than 10 µM and an IC50 (second compound 0.316 µM) greater than 10 µM. For the same compound, the IC50 (second compound 1 µM) was greater than 10 µM, the IC50 (second compound 3.16 µM) was greater than 10 µM and the IC50 (second compound 10 µM) was greater than 10 µM. For the same compound, the viability, T/C [1] was 97.6%, the viability, T/C [2] was 96.7% and the viability, T/C [3] was 98.6%. The viability, T/C [4] was 99.2%, the viability, T/C [5] was 87.3% and the viability, T/C [6] was 90.8%. It also gave a viability, T/C [7] of 115%, a viability, T/C [8] of 109% and a viability, T/C [9] of 105%. For the same compound, the viability, T/C [10] was 90.6%, the viability, T/C [11] was 84.6% and the viability, T/C [12] was 83.5%. The viability, T/C [13] was 88%, the viability, T/C [14] was 93.7% and the viability, T/C [15] was 88.9%. It also gave a viability, T/C [16] of 85.5%, a viability, T/C [17] of 85.5% and a viability, T/C [18] of 77%. It also gave a viability, T/C [19] of 87.8%, a viability, T/C [20] of 83.2% and a viability, T/C [21] of 78.8%. It also gave a viability, T/C [22] of 77.7%, a viability, T/C [23] of 87% and a viability, T/C [24] of 65.3%. For the same compound, the viability, T/C [25] was 78.2%, the viability, T/C [26] was 80.3% and the viability, T/C [27] was 78.2%. The viability, T/C [28] was 74%, the viability, T/C [29] was 76.2% and the viability, T/C [30] was 57.4%. For the same compound, the viability, T/C [31] was 71.7%, the viability, T/C [32] was 70.7% and the viability, T/C [33] was 70.9%. The viability, T/C [34] was 73.1%, the viability, T/C [35] was 64.8% and the viability, T/C [36] was 66.2%.

Reference: PubChem BioAssay AID2060502 (Molecular Pharmacology Branch, DTP, NCI, 2025)
